# Measurements reported in publication PMC9697519, “New Theonellapeptolides from Indonesian Marine Sponge Theonella swinhoei as Anti-Austerity Agents” (Marine Drugs, 2022).
# Where two headings read alike, the source gives them in different places. Where a SMILES comes first, the peptide text is derived from it. Bridges are numbered along the chain shown (N, C = ends). [ ]: non-standard residue; d: D form. The star is where a group is joined. dNMeaIle = CC[C@H](C)[C@@H](NC)C(=O)O; d(aIle) = CC[C@H](C)[C@@H](N)C(=O)O; NMeI = CC[C@H](C)[C@H](NC)C(=O)O; dNMeL = CN[C@H](CC(C)C)C(=O)O; NMeV = CN[C@H](C(=O)O)C(C)C; Methoxyacetyl = COCC(=O)*; βAla = NCCC(=O)O
# What was measured:
# [1] = system: HepG2 (human liver cancer cells); conditions: 24 h
# Procedure: (§1) Finally, the anti-austerity activity on two other different cancer cell lines was studied. Preferential cytotoxicity was assessed in a nutrient-deprived medium. Esumi et al. hypothesized that tolerance to nutrient deprivation as well as angiogenesis might be an important factor in tumor progression under hypovascular condition.
# (§2) Briefly, MIA PaCa-2, HepG2 and MCF-7 Cells (2 × 10^4 cells/well) were seeded in 96-well plates and incubated in fresh DMEM. The cells were washed with Dulbecco’s phosphate-buffered saline (PBS) before the medium was replaced with DMEM or NDM containing serial dilutions of the test samples. After 24 h of incubation, the cells were washed with PBS, and 100 μL of DMEM containing 10% WST-8 cell counting kit solution was added to each well. After 3 h of incubation, the absorbance was measured at 450 nm. Cell viability was calculated from the mean values for three wells. The preferential cytotoxicity was expressed as the concentration at which 50% of cells died preferentially in NDM (PC50).
# [2] = system: MCF-7 (human breast cancer cells); conditions: 24 h
# Procedure: as §1, §2
# [3] = system: human pancreatic cancer cell line MIA PaCa-2; conditions: 24 h
# Procedure: Data are presented as preferential cytotoxicity (PC50) values, which represent the concentration that kills 50% of cancer cells in a nutrient-deprived medium (NDM) without any toxicity in a nutrient-rich medium DMEM (Dulbecco’s Modified Eagle Medium).
# as §2
# Pancreatic cancer cells (MIA PaCa-2 cells) were kindly provided by Dr. Suresh Awale, an Associate Professor at Institute of Natural Medicine, University Toyama, Toyama, Japan. MIA PaCa-2 (RBRC-RCB2094), human pancreatic cancer cell lines were purchased from Riken BRC cell bank.
# [4] = system: MIA PaCa-2 cells; experiment: Morphological analysis, EB/AO double-staining; type: cell-based, human; conditions: 5 and 10 μM, NDM, 24 h, 24-well plate
# Procedure: Thus, more detailed studies were performed on the major compound theonellapeptolide IId (4). Its effect on morphology status of MIA PaCa-2 cells under starvation condition was studied using a double-staining assay with EB (ethidium bromide) and AO (acridine orange). The membranes of dead or dying cells are penetrated by EB and staining in red while living cells are stained by AO, a cell-membrane-permeable dye emitting bright green fluorescence. Both AO and EB stains are known as DNA-intercalating agents. During cell death, EB and AO enter into the cell after the integrity of the cell membrane is disrupted, which facilitates the emission of orange fluorescence. […] In Figure 6A, treatment with 4 led to a dose-dependent increase in EB-stained cells emitting red fluorescence and showing drastic alteration of cell morphology. […] Real-time anti-austerity potential tracking of 4 showing morphological changes in MIA PaCa-2 cells under NDM was monitored using a Nikon sCMOS camera oxford instrument, Hamamatsu Photonics/Ti-E, for 24 h. […]
# Figure 6 (A) Morphological changes of MIA PaCa-2 cells induced by 4 in a nutrient-deprived medium (NDM). […] The cells were stained with ethidium bromide (EB) and acridine orange (AO), and photographed in the fluorescence (red and green) under phase contrast modes using a Nikon sCMOS camera oxford instrument, Hamamatsu Photonics/Ti-E. (B) Structure of bioactive compound 4. […]
smiles,measurement,setting,value
"CC[C@H](C)[C@H]1C(=O)NCCC(=O)N[C@H]([C@@H](C)CC)C(=O)N(C)[C@@H](C(C)C)C(=O)N[C@@H](C)C(=O)NCCC(=O)N[C@H](CC(C)C)C(=O)N(C)[C@H]([C@@H](C)CC)C(=O)O[C@H](C)[C@H](NC(=O)[C@@H](CC(C)C)N(C)C(=O)[C@@H](NC(=O)COC)C(C)C)C(=O)NCCC(=O)N[C@H](CC(C)C)C(=O)N1C [Compound 4, theonellapeptolide IId] (Methoxyacetyl-V[dNMeL]T[βAla][dL][NMeI][βAla][d(aIle)][NMeV]A[βAla][dL][dNMeaIle]; ester 3-C)",IC50,"[1]; read-out: IC50 in DMEM, HepG2, nutrient-rich DMEM, WST-8, absorbance 450 nm, mean of three wells",> 100 µM
same,IC50,"[1]; read-out: PC50 in NDM, HepG2, preferential cytotoxicity, nutrient-deprived medium (NDM), WST-8, mean of three wells",> 100 µM
same,IC50,"[2]; read-out: IC50 in DMEM, MCF7, nutrient-rich DMEM, WST-8, absorbance 450 nm, mean of three wells",> 100 µM
same,IC50,"[2]; read-out: PC50 in NDM, MCF7, preferential cytotoxicity, nutrient-deprived medium (NDM), WST-8, mean of three wells",> 100 µM
same,IC50,"[3]; read-out: IC50 in DMEM, MIA PaCa-2, nutrient-rich DMEM, WST-8, absorbance 450 nm, mean of three wells",38.2 µM
same,IC50,"[3]; read-out: PC50 in NDM, MIA PaCa-2, preferential cytotoxicity, nutrient-deprived medium (NDM), WST-8, mean of three wells",7.8 µM
same,EB/AO staining of cells,[4],exclusive red EB
